Among the data in ChEMBL document CHEMBL2203282, “1,4-naphthoquinone cations as antiplasmodial agents: hydroxy-, acyloxy-, and alkoxy-substituted analogues” (ACS Med Chem Lett, 2012) are IC50 values, retold here.

The test system of this assay is Plasmodium falciparum. Put plainly: Antiplasmodial activity against chloroquine-resistant Plasmodium falciparum W2 infected in human erythrocytes assessed as reduction in parasitemia after 48 hrs by flow cytometry analysis. The class given is functional, organism-based. As to conditions: W2, 48 h. (In general: Flow cytometry measures light scatter and fluorescence of single cells or particles in a stream.)

In the case of `CCCCCCCCCCC1=C(C)C(=O)c2ccccc2C1=O`, the IC50 is greater than 10000 nM. For `CC(=O)OC1=C(CCCCC[P+](c2ccccc2)(c2ccccc2)c2ccccc2)C(=O)c2ccccc2C1=O` the value was 1900 nM; for `CCCCCCCCCCC1=C(OC(C)=O)C(=O)c2ccccc2C1=O`, 392 nM.

As for `CCCCCCCCCCC1=C(O)C(=O)c2ccccc2C1=O`, the IC50 worked out at 339 nM. The result for `CC1=C(OC(=O)CCC[P+](c2ccccc2)(c2ccccc2)c2ccccc2)C(=O)c2ccccc2C1=O` reads 4600 nM. In the case of `CC1=C(OC(=O)CCCCCCCCCC[P+](c2ccccc2)(c2ccccc2)c2ccccc2)C(=O)c2ccccc2C1=O`, the IC50 stood at 1380 nM. `CC1=C(OCC(=O)OCCC[P+](c2ccccc2)(c2ccccc2)c2ccccc2)C(=O)c2ccccc2C1=O`: the half-inhibitory concentration (IC50) worked out at 1230 nM. The result for `CC1=C(OCCCCCCCCCC[P+](c2ccccc2)(c2ccccc2)c2ccccc2)C(=O)c2ccccc2C1=O` reads 119 nM.

Turning to `CC1=C(OCCCCCC[P+](c2ccccc2)(c2ccccc2)c2ccccc2)C(=O)c2ccccc2C1=O`, the IC50 came to 42.7 nM.

On to `CC1=C(OCCC[P+](c2ccccc2)(c2ccccc2)c2ccccc2)C(=O)c2ccccc2C1=O`, for which the IC50 came out at 41.9 nM. Take `O=C1C=C(OCCC[P+](c2ccccc2)(c2ccccc2)c2ccccc2)C(=O)c2ccccc21`: the IC50 turned out to be 40 nM. Regarding `O=C1C=C(OCCCCCC[P+](c2ccccc2)(c2ccccc2)c2ccccc2)C(=O)c2ccccc21`, the IC50 was found to be 28.5 nM. The result for `O=C1C(Cc2ccc(Cl)cc2)=C(OCCCCCC[P+](c2ccccc2)(c2ccccc2)c2ccccc2)C(=O)c2ccccc21` reads 49.5 nM; that for `O=C1C(Cc2ccccc2)=C(OCCCCCC[P+](c2ccccc2)(c2ccccc2)c2ccccc2)C(=O)c2ccccc21`, 49.1 nM. For `O=C1C(OCCCCCC[P+](c2ccccc2)(c2ccccc2)c2ccccc2)=C(C2CCCCC2)C(=O)c2ccccc21` the value was 47.9 nM; for `O=C1C(Cc2ccccc2)=C(OCCC[P+](c2ccccc2)(c2ccccc2)c2ccccc2)C(=O)c2ccccc21`, 46.7 nM. As to `O=C1C(OCCC[P+](c2ccccc2)(c2ccccc2)c2ccccc2)=C(C2CCCCC2)C(=O)c2ccccc21`, the IC50 is 42.3 nM. The result for `COc1ccc(C2=C(OCCC[P+](c3ccccc3)(c3ccccc3)c3ccccc3)C(=O)c3ccccc3C2=O)cc1` reads 17.4 nM. The result for `CC1=C(OCCC[n+]2ccccc2)C(=O)c2ccccc2C1=O` reads 167 nM; that for `CC1=C(OCCC[n+]2ccn(C)c2)C(=O)c2ccccc2C1=O`, 165 nM. The result for `CC(=O)OC1=C(c2ccc(OCCCCCCCCCC[P+](c3ccccc3)(c3ccccc3)c3ccccc3)cc2)C(=O)c2ccccc2C1=O` reads 7120 nM. For `O=C1C(O)=C(c2ccc(OCCC[P+](c3ccccc3)(c3ccccc3)c3ccccc3)cc2)C(=O)c2ccccc21`, the IC50 was determined as 6730 nM. For `O=C1C(O)=C(c2ccc(OCCCCCCCCCC[P+](c3ccccc3)(c3ccccc3)c3ccccc3)cc2)C(=O)c2ccccc21` the value was 6640 nM; for `CC(=O)OC1=C(c2ccc(OCCCC[P+](c3ccccc3)(c3ccccc3)c3ccccc3)cc2)C(=O)c2ccccc2C1=O`, 5440 nM; for `O=C1C(O)=C(CCCCC[P+](c2ccccc2)(c2ccccc2)c2ccccc2)C(=O)c2ccccc21`, 4080 nM. As to `CCCC[P+](CCCC)(CCCC)CCCCCCCCCCC1=C(O)C(=O)c2ccccc2C1=O`, the IC50 is 3860 nM. For `CC(=O)OC1=C(CCCCCCCCCC[P+](c2ccccc2)(c2ccccc2)c2ccccc2)C(=O)c2ccccc2C1=O`, the IC50 came to 3590 nM. For `O=C1C(O)=C(CCCCCCCCCC[P+](Cc2ccccc2)(Cc2ccccc2)Cc2ccccc2)C(=O)c2ccccc21` the value was 3280 nM. Turning to `O=C1C(O)=C(CCCCCCCCCC[P+](c2ccccc2)(c2ccccc2)c2ccccc2)C(=O)c2ccccc21`, the IC50 stood at 2180 nM. The result for `C[C@@H]1CC[C@H]2[C@@H](C)C(=O)O[C@@H]3O[C@@]4(C)CC[C@@H]1[C@]32OO4` [ARTEMISININ] reads 18.1 nM. The result for `O=C1C(O)=C([C@H]2CC[C@H](c3ccc(Cl)cc3)CC2)C(=O)c2ccccc21` [ATOVAQUONE] reads 0.5 nM.

Usually IC50 stands for the concentration needed to halve the response being measured.
